{"source": "patent US20230355500A1", "about": "“TOPICAL COMPOSITION” (LILIGER LTD, priority 2021, published 2023)", "key": {"skin": {"system": "skin", "assay": "Concentration needed for skin effect, judged by redness, swelling, tingling and burning sensation", "type": "in vivo, human", "protocol": "The concentration of the NO-donor in the topical composition of the present invention is determined by the amount that is sufficient to elevate the level of NO in the skin, upon topical application of the composition. Since measuring NO levels in humans is impractical, such elevation can be observed by the appearance of skin redness (erythema), swelling (oedema) a tingling sensation and a burning sensation, which is intensified as the concentration goes up. Furthermore, the occurrence of elevated NO can be noticed by its desirable cosmetic outcomes such as enhanced radiance and reduction of wrinkles.\nFor example, in the case of nitroglycerine, 2% is insufficient. At higher concentrations, from about 4%, a slight burning sensation is noticed. This sensation intensifies as the nitroglycerine concentration increases. Thus, in certain embodiments, the concentration of nitroglycerine as NO-donor is between about 4% - about 12%; and in other embodiments it can be from about 4%-8%, or from about 8%-12%.\nIn the case of arginine, 5% is insufficient. At higher concentrations, from about 6%, a slight burning sensation is noticed, and it is associated with a tingling sensation. This sensation intensifies as the arginine concentration increases. Thus, in certain embodiments, the concentration of arginine as NO-donor is at least about 6%. For example, between about 6% and about 25%. In other embodiments, the concentration of arginine can be from about 6% to about 8%, or from about 8% to about 10%, or from about 10% to about 14%, or from about 14% to about 18%, or from about 18% to about 25%, or from about 8% to about 25%, or from about 6% to about 12%, or from about 8% to about 12%, or from about 8% to about 10%.\nThe concentration of the counter-NO agent is determined so that the skin redness (erythema), swelling (oedema) and burning sensation, induced by the NO-donor is decreased or eliminated. For example, in certain cases, where the counter-NO agent is nicotinamide, 0.5% is insufficient. […]"}, "stratum corneum": {"system": "stratum corneum", "details": "patients with atopic dermatitis, topical treatment; cited from earlier work"}, "ageing skin": {"system": "ageing skin", "assay": "Treatment of ageing skin, study #2: day cream used for 28 days, unguided free-form feedback", "type": "in vivo, human", "details": "addition of nicotinamide to the arginine cream", "description": "Objectives: To determine the impact of Composition #1 on middle-aged women after 28 days of continuous use. […] They were asked to use the cream daily for 28 days and to provide unguided input (free form) Results: 13 of the 20 women provided feedback that was summarized in the table below."}}}
{"smiles": "N=C(N)NCCC[C@H](N)C(=O)O", "note": "[arginine, L-arginine]", "values": [{"measurement": "Sufficiency of the concentration as NO-donor", "setting": "skin; 5% in the topical composition", "value": "insufficient"}, {"measurement": "Concentration from which a slight burning sensation is noticed", "setting": "skin; human, in vivo", "value": "at least 6%"}]}
{"smiles": "Cl.N=C(N)NCCC[C@H](N)C(=O)O", "note": "[arginine hydrochloride]", "values": [{"measurement": "Clinical symptoms of dry skin", "setting": "stratum corneum", "value": "improvement"}, {"measurement": "Skin moisture", "setting": "stratum corneum", "value": "increase"}, {"measurement": "Urea in the stratum corneum", "setting": "stratum corneum", "value": "significantly increase"}]}
{"smiles": "NC(=O)c1cccnc1", "note": "[nicotinamide]", "values": [{"measurement": "Previous issues (Study #1) of burning sensation and over-tingling", "setting": "ageing skin", "value": "solved"}, {"measurement": "Sufficiency of the concentration as counter-NO agent (to decrease redness, swelling and burning sensation)", "setting": "skin; 0.5% in the topical composition, in certain cases", "value": "insufficient"}]}
